In patent publication US20120316105A1, “Polymyxin Derivates Useful As Antibacterial Agents” (priority 2011, published 2012):
Bridge positions count the residues as written; N and C are the ends. Square brackets hold non-standard residues; d marks the D form. Peptide text beside a SMILES is read from it. * marks the point of attachment. X18 = N#Cc1ccc(-c2cc(C(=O)*)ccc2C#N)cc1; X4 = N#Cc1cccc(-c2cc(C(=O)*)ccc2C#N)c1; X21 = N#Cc1cccc(-c2cc(C(=O)*)ccn2)c1; X39 = COc1ccc(C(=O)*)cc1-c1ccccc1; X23 = O=C(c1cnnc(-c2ccccc2)c1)*; X28 = O=C(c1ccc(Oc2ccccc2)nc1)*; Dab = NCC[C@H](N)C(=O)O; Dap = NC[C@H](N)C(=O)O

Tests used:
[1] = tested on: PA-1646, polymyxin-resistant clinical isolate of Pseudomonas aeruginosa; assay type: cell-based; conditions: PA-1646, polymyxin-resistant clinical isolate of
Protocol: (§1) Minimum bactericidal concentration (MBC, mg/L), minimum inhibitory concentration (MIC, mg/L), and human renal proximal tubule epithelial cell line cytotoxicity concentration 50% (hRPTEC, TC50, micromolar) for compounds of Formula I are listed in Table 2. The compounds of Formula I were tested as the corresponding trifluoroacetate salt except for Example 1 which was tested as the sulfate salt. For Table 2 below: PMB=polymyxin B as the sulfate salt (Bedford Laboratories, pharmaceutical grade); PMB1=polymyxin B1 as the trifluoroacetate salt; Nona=polymyxin B nonapeptide as the trifluoroacetate salt. PMB1 and Nona were prepared using the solid phase methodology described in the experimental section herein.
(§2) The in vitro antibacterial activity of compounds of Formula I was evaluated by MIC testing according to Clinical and Laboratory Standards Institute (CLSI). See: Clinical and Laboratory Standards Institute. Methods for Dilution Antimicrobial Susceptibility Tests for Bacteria that Grow Aerobically; Approved Standard-Eighth Edition. CLSI document M7-A8 [ISBN 1-56238-689-1]. Clinical and Laboratory Standards Institute, 940 West Valley Road, Suite 1400, Wayne, Pa. 19087-1898 USA, 2006; also Clinical and Laboratory Standards Institute. Performance Standards for Antimicrobial Susceptibility Testing; Twentieth Informational Supplement. CLSI document M100-S20 [ISBN 1-56238-716-2]. Clinical and Laboratory Standards Institute. Methods for Determining Bactericidal Activity of Antimicrobial Agents; Approved Guideline. CLSI document M26-A (ISBN 1-56238-384-1). CLSI, 940 West Valley Road, Suite 1400, Wayne, Pa. 19087-1898 USA, 1999.
PA-1646 is a polymyxin-resistant clinical isolate of Pseudomonas aeruginosa obtained from JMI labs (www.jmilabs.com);

[2] = tested on: AB-1649, polymyxin-resistant clinical isolate of Acinetobacter baumannii; assay type: cell-based; conditions: AB-1649, polymyxin-resistant clinical isolate of
Protocol: as §1, §2
(§3) The MIC determination is a standard laboratory method for evaluating the antibacterial activity of a compound. The MIC represents the lowest drug concentration that inhibits visible growth of bacteria following overnight incubation. […] Typically, the drug concentration range is broken down into 2-fold increments (e.g. 0.06 mg/L, 0.12 mg/L, 0.25 mg/L, 0.50 mg/L, 1.0 mg/L, etc.) and the various drug concentrations are all individually incubated overnight with approximately the same number of bacteria. The MIC is then determined by visually inspecting the drug effect at each concentration, and identifying the lowest drug concentration that has inhibited bacterial growth as compared to the drug free control. Typically, bacteria continue to grow at drug concentrations lower than the MIC and don't grow at concentrations at and above the MIC.
(§4) The MIC values described in Table 2 below were derived from assays wherein each test compound was evaluated in duplicate. In cases where the duplicate values varied by 0-2-fold, the lower of the two values was reported below. Generally speaking, if the duplicate values varied by more than 2-fold, the assay was considered non-valid and was repeated until the variation between duplicate runs was ≦2-fold. In line with the CLSI guidelines referred to above, both control organisms and reference compounds were utilized in each MIC assay to provide proper quality control. MIC values generated with these control organisms and reference compounds were required to fall within a defined range for the assay to be considered valid and be included herein. Those skilled in the art will recognize that MIC values can and do vary from experiment to experiment. Generally speaking, it should be recognized that MIC values often vary +/−2-fold from experiment to experiment. While a single MIC is reported for each compound and each microorganism, the reader should not conclude that each compound was only tested once. Several of the compounds were subjected to multiple tests. The data reported in Table 2 is reflective of the compounds relative activity and different MICs may have been generated on these occasions in line with the guidelines described above.
(§5) The following bacterial strains were used in these MIC determinations: […]

[3] = tested on: AB-3167, clinical isolate of Acinetobacter baumannii; assay type: cell-based; conditions: AB-3167, clinical isolate of
Protocol: as §1, §2, §3, §4, §5

[4] = tested on: PA-1646, polymyxin-resistant clinical isolate of Pseudomonas aeruginosa; assay type: cell-based; conditions: PA-1646, polymyxin-resistant clinical isolate of; remark: listed apart in the source
Protocol: as §1, §2, §3, §4, §5

[5] = tested on: Pseudomonas aeruginosa strain PA01; assay type: cell-based; conditions: strain
Protocol: as §1, §2, §3, §4, §5

[6] = tested on: AB-1649, polymyxin-resistant clinical isolate of Acinetobacter baumannii; assay type: cell-based; conditions: AB-1649, polymyxin-resistant clinical isolate of; remark: listed apart in the source
Protocol: as §1, §2
AB-1649 is a polymyxin-resistant clinical isolate of Acinetobacter baumannii obtained from JMI labs (www.jmilabs.com);

[7] = tested on: EC-1, mouse virulent strain of Escherichia coli; assay type: cell-based; conditions: E. coli EC-1; overnight incubation, lower of duplicate values; trifluoroacetate salt (Example 1 and PMB sulfate)
Protocol: as §1, §2, §3, §4
The following bacterial strains were used in these MIC determinations:
EC-1 is a mouse virulent strain of Escherichia coli.

[8] = Cytotoxicity assay (LDH release), hRPTEC; assay type: cell-based, human; conditions: human
Protocol: as §1
Human Renal Proximal Tubule Epithelial cells (hRPTEC) were obtained from Lonza (Walkersville, Md., USA) and cultured in REGM (Renal Epithelial Cell Basal Medium supplemented with human epithelial growth factor, hydrocortisone, epinephrine, insulin, triiodothyronine, transferrin, gentamycin/amphotericin-B, and fetal bovine serum). The hRPTEC cells were seeded into 96-well plates and incubated at 37° C. in 5% CO2. Following a growth period of 72 hours, cells were treated with compounds at 100, 67, 44, 30, 20 and 13 micromolar for 24 hours at 37° C. in 5% CO2. The cell supernatant was then harvested for determination of LDH (lactate dehydrogenase) production. The Cytotoxicity Detection Kit from Roche was used for the measurement of LDH activity released from damaged cells. The Toxic Concentration 50% (TC50, micromolar) values were determined for each compound and compared to the control compounds (polymyxin B was used as a positive control and polymyxin B nonapepetide was used as negative control).

Row | SMILES | PA-1646 MBC [1] | AB-1649 MIC [2] | AB-3167 MIC [3] | PA-1646 MIC [4] | PA01 MIC [5] | AB-1649 MBC [6] | EC-1 MIC [7] | CC50 at 24 h [8]
1 | CC(C)C[C@@H]1NC(=O)[C@@H](Cc2ccccc2)NC(=O)[C@H](CCN)NC(=O)[C@@H](NC(=O)[C@H](CN)NC(=O)[C@@H](NC(=O)[C@H](CCN)NC(=O)c2cnnc(-c3ccccc3)c2)[C@@H](C)O)CCNC(=O)[C@H]([C@@H](C)O)NC(=O)[C@H](CCN)NC(=O)[C@H](CCN)NC1=O [Example 11] (X23-[Dab]T[Dap][Dab][Dab][dF]L[Dab][Dab]T; lactam 4-C) | 8 µg/mL | 2 µg/mL | 0.25 µg/mL | 2 µg/mL | 0.25 µg/mL | 4 µg/mL | 0.125 µg/mL | 84 µM
2 | CC(C)C[C@@H]1NC(=O)[C@@H](Cc2ccccc2)NC(=O)[C@H](CCN)NC(=O)[C@@H](NC(=O)[C@H](CN)NC(=O)[C@@H](NC(=O)[C@H](CCN)NC(=O)c2ccc(Oc3ccccc3)nc2)[C@@H](C)O)CCNC(=O)[C@H]([C@@H](C)O)NC(=O)[C@H](CCN)NC(=O)[C@H](CCN)NC1=O [Example 12] (X28-[Dab]T[Dap][Dab][Dab][dF]L[Dab][Dab]T; lactam 4-C) | 16 µg/mL | 2 µg/mL | 0.25 µg/mL | 4 µg/mL | 1 µg/mL | 4 µg/mL | 0.25 µg/mL | 61 µM
3 | CC(C)C[C@@H]1NC(=O)[C@@H](Cc2ccccc2)NC(=O)[C@H](CCN)NC(=O)[C@@H](NC(=O)[C@H](CN)NC(=O)[C@@H](NC(=O)[C@H](CCN)NC(=O)c2ccc(C#N)c(-c3ccc(C#N)cc3)c2)[C@@H](C)O)CCNC(=O)[C@H]([C@@H](C)O)NC(=O)[C@H](CCN)NC(=O)[C@H](CCN)NC1=O [Example 13] (X18-[Dab]T[Dap][Dab][Dab][dF]L[Dab][Dab]T; lactam 4-C) | 4 µg/mL | 2 µg/mL | 0.25 µg/mL | 2 µg/mL | 0.5 µg/mL | 2 µg/mL | 0.25 µg/mL | 58 µM
4 | CC(C)C[C@@H]1NC(=O)[C@@H](Cc2ccccc2)NC(=O)[C@H](CCN)NC(=O)[C@@H](NC(=O)[C@H](CN)NC(=O)[C@@H](NC(=O)[C@H](CCN)NC(=O)c2ccc(C#N)c(-c3cccc(C#N)c3)c2)[C@@H](C)O)CCNC(=O)[C@H]([C@@H](C)O)NC(=O)[C@H](CCN)NC(=O)[C@H](CCN)NC1=O [Example 14] (X4-[Dab]T[Dap][Dab][Dab][dF]L[Dab][Dab]T; lactam 4-C) | 16 µg/mL | 2 µg/mL | 0.5 µg/mL | 4 µg/mL | 0.5 µg/mL | 2 µg/mL | 0.5 µg/mL | 43 µM
5 | CC(C)C[C@@H]1NC(=O)[C@@H](Cc2ccccc2)NC(=O)[C@H](CCN)NC(=O)[C@@H](NC(=O)[C@H](CN)NC(=O)[C@@H](NC(=O)[C@H](CCN)NC(=O)c2ccnc(-c3cccc(C#N)c3)c2)[C@@H](C)O)CCNC(=O)[C@H]([C@@H](C)O)NC(=O)[C@H](CCN)NC(=O)[C@H](CCN)NC1=O [Example 15] (X21-[Dab]T[Dap][Dab][Dab][dF]L[Dab][Dab]T; lactam 4-C) | 16 µg/mL | 2 µg/mL | 0.25 µg/mL | 4 µg/mL | 0.5 µg/mL | 2 µg/mL | 0.125 µg/mL | 43 µM
6 | COc1ccc(C(=O)N[C@@H](CCN)C(=O)N[C@H](C(=O)N[C@@H](CN)C(=O)N[C@H]2CCNC(=O)[C@H]([C@@H](C)O)NC(=O)[C@H](CCN)NC(=O)[C@H](CCN)NC(=O)[C@H](CC(C)C)NC(=O)[C@@H](Cc3ccccc3)NC(=O)[C@H](CCN)NC2=O)[C@@H](C)O)cc1-c1ccccc1 [Example 16] (X39-[Dab]T[Dap][Dab][Dab][dF]L[Dab][Dab]T; lactam 4-C) | 2 µg/mL | 2 µg/mL | 0.5 µg/mL | 1 µg/mL | 0.5 µg/mL | 2 µg/mL | 0.25 µg/mL | 27 µM
